Assay results as given in ChEMBL document CHEMBL1136697, “3D-QSAR studies on thieno[3,2-d]pyrimidines as phosphodiesterase IV inhibitors” (Bioorg Med Chem Lett, 2003).

Target: Phosphodiesterase 4 (Cavia porcellus)
Assay: Inhibitory activity against (PDE IV) phosphodiesterase IV in guinea pig articular tissue

Row | IC50 | SMILES
1 | 65 µM | c1ccc(CNc2nc(CN3CCCCC3)nc3ccsc23)cc1
2 | 4.7 µM | c1ccc(CNc2nc(CCCCOc3ccccc3)nc3ccsc23)cc1
3 | 1.1 µM | CCCCc1nc(NCc2ccccc2)c2occc2n1
